Format in all cases: biochemical
The target of test [1] is T1, human liver X receptor α-GST fusion protein (LXR-α) (Homo sapiens, UniProt Q13133).
T1 construct: made in house
T1 sequence (Q13133 209-447 limits assumed): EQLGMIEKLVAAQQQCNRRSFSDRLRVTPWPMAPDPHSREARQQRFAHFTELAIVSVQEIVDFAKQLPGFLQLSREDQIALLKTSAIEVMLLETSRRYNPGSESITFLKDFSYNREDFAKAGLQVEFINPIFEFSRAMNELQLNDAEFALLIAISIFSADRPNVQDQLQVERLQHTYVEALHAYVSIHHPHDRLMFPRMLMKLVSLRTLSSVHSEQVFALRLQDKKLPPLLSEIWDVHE
As to the kind of experiment: Agonist assay with nuclear receptor-GST fusion protein, LXR-α. Particulars: FIG. 9.

Test [2] deals with T2, human liver X receptor β-GST fusion protein (LXR-β) (Homo sapiens, UniProt P55055).
T2 construct: made in house
T2 sequence (P55055 222-460 limits assumed): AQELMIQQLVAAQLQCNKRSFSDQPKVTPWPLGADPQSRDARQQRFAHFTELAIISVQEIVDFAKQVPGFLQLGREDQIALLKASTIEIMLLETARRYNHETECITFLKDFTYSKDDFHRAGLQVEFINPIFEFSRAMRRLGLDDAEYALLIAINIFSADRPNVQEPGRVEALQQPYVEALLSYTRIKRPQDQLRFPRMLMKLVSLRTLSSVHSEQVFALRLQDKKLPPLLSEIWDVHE
As to the kind of experiment: Agonist assay with nuclear receptor-GST fusion protein, LXR-β. Particulars: FIG. 9.

Test [3] has as its target T3, human estrogen receptor α-GST fusion protein (ER-α) (Homo sapiens, UniProt P03372).
T3 construct: made in house; host or cells: Escherichia coli BL21
T3 sequence (P03372 311-547 limits assumed): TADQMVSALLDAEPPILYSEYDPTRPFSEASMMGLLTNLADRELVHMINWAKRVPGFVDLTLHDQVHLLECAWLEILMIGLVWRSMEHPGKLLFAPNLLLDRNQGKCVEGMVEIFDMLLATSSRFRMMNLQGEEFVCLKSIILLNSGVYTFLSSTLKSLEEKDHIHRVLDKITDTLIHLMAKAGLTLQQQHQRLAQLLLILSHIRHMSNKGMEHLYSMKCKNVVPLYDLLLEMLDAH
As to the kind of experiment: Assay of ligand using coactivator SRC1-bound plate, ER-α (present detection method). The settings on record: HRP-labeled anti-GST antibody, 450 nm, FIG. 6. How it is done:
In a manner similar to that of the aforementioned existing method, a purified ER-α product (10 mL) was prepared from an ER-α cell culture (1 L). By use of this product, the amount of an assay reagent prepared was examined as described hereinbelow. Avidin was immobilized on a plate in advance, and a biotinylated coactivator SRC1 (0.01 mg/mL, dissolved in DMSO) was prepared into a solution (final concentration: […]) by use of a washing buffer. The thus-prepared solution was dispensed into the plate (100 μL/well), followed by impregnation for one hour, to thereby prepare an SRC1-bound plate. […] After reaction with shaking for one hour, the plate was washed with a washing buffer, and an HRP-labeled anti-GST antibody solution prepared by diluting the antibody with a washing buffer by a factor of 1/40,000 was dispensed into the plate (100 μL/well), followed by reaction with shaking for one hour. After reaction, the plate was washed with a washing buffer; a color-developing reagent was added to the plate (100 μL/well); and the plate was allowed to stand still for 10 minutes for color development reaction. Color development reaction was stopped by use of 1 N sulfuric acid, followed by measurement at a wavelength of 450 nm by means of a plate reader.
An HRP-labeled anti-GST antibody was employed for assay.

For test [4], the target named is T4, human estrogen receptor β-GST fusion protein (ER-β) (Homo sapiens, UniProt Q92731).
T4 construct: made in house; host or cells: Escherichia coli BL21
T4 sequence (Q92731 264-498 limits assumed): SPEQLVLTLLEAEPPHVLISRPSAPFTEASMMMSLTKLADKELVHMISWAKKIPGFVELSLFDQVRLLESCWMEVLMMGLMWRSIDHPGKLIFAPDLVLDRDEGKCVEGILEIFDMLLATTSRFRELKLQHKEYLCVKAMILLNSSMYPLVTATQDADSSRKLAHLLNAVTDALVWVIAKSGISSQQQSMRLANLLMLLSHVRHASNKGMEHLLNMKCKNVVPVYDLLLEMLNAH
As to the kind of experiment: Assay of ligand using coactivator SRC1-bound plate, ER-β. The settings on record: HRP-labeled anti-GST antibody, 450 nm, FIG. 6.

Data on four compounds can be found in patent US7767409B2, “Method for detection of substance bound to nuclear receptor” (Fujikura Kasei Co., Ltd., priority 2005, dated 2010).

Consider `O=S(=O)(c1ccccc1)N(CC(F)(F)F)c1ccc(C(O)(C(F)(F)F)C(F)(F)F)cc1` [TO-901317], for which the “OD, agonist dose dependence” value in test [1] and in test [2] was “OD was increased in a manner dependent on the dose of the corresponding agonist” each time.
As for `CC(C)(c1ccc(O)cc1)c1ccc(O)cc1` [bisphenol A], the “OD (binding of receptor to immobilized coactivator), agonist mode” value (“OD … agonist mode” below) in test [3] and in test [4] was “increase in OD was observed” each time.
In the case of `CC/C(=C(/CC)c1ccc(O)cc1)c1ccc(O)cc1` [diethylstilbestrol], the “OD … agonist mode” value in test [4] is “increase in OD was observed”.
Consider nonylphenol, for which the “OD … agonist mode” value in test [3] and in test [4] was “increase in OD was observed” throughout.
